# “Also recorded” adds a separate entry of the source. Where two headings read alike, the source gives them in different places.
# How the values were obtained:
# Pyrophosphorylase [1] = target: T1, Pyrophosphorylase (Sus scrofa, UniProt F1S210); test: Specificity of pyrophosphorylase (reverse direction); format: biochemical, pig; details: 5 mM, PP = 1 mM; for Relative Activity: UDP-GalNAc = 100
# T1 construct: 64 and 55 kDa bands; native about 125 kDa
# Method: (§1) When measured in the reverse direction, either a direct assay or an indirect assay could be used. […] The incubation mixtures contained the following components in a final volume of 50 μl: 5 mM sodium pyrophosphate, 250 uM UDP-[^3 H]GlcNAc (2.2 Ci/mmol), 100 mM Tris HCl buffer, pH 8.5, 2 mM MgCl2, and various amounts of enzyme at the different stages of purification. […] The suspension was vortexed vigorously for 2 minutes, and was then centrifuged in a microfuge. The supernatant liquid was removed and saved, and the charcoal was washed with 1 ml of water. The supernatant liquid from this wash was combined with the first supernatant liquid, and an aliquot was removed and counted, as a measure of the formation of GlcNAc-1-P.
# (§2) For the indirect assay, a modification of the spectrophotometric method of Munch-Petersen, (1956) Acta Chim. Scand. […] The assay mixtures contained 50 mM Tris-HCl buffer, pH 7.5, 1 mM MgCl2, 0.5 mM ADP, 1 mM glucose, 0.5 mM NADP, 1 mM inorganic pyrophosphate, 2 mM UDP-HexNAc and 2.5 units each of nucleoside diphosphate kinase, hexokinase and glucose-6-P dehydrogenase.
# (§3) The substrate specificity of the purified enzyme was examined in both the forward and the reverse direction.
# [2] = target: T2, UDP-GlcNAc pyrophosphorylase (Sus scrofa, UniProt F1S210); test: Photoaffinity labeling of purified pyrophosphorylase and its inhibition (FIG. 5); format: binding, pig; details: for labeling of enzyme subunits by probe: UV light, SDS-PAGE
# T2 construct: both 64 and 55 kDa bands photolabelled
# T2 sequence (F1S210 1-505): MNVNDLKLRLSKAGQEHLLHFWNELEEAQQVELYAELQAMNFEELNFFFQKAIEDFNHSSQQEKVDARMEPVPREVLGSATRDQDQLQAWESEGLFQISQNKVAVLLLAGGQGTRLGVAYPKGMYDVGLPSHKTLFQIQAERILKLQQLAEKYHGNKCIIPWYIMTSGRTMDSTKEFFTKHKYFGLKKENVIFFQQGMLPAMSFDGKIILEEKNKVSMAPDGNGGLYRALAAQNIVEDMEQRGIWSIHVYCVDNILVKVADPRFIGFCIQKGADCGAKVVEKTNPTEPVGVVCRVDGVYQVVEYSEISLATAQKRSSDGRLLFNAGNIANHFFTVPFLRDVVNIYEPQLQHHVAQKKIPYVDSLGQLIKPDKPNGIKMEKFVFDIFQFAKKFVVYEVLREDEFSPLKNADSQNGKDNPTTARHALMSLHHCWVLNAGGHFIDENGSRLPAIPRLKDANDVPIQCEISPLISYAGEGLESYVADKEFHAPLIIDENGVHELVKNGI
# Method: Enzyme was incubated with radioactive probe in the presence or absence of various inhibitors, and some of the incubations were exposed to UV light to activate the probe. Each incubation was treated with trichloroacetic acid to precipitate the protein, and the pellet was resuspended in SDS and subjected to SDS-PAGE. Radioactive proteins were detected by exposure to film. […]
# Pyrophosphorylase [3] = target: T1, Pyrophosphorylase; test: Putative inhibitors of pyrophosphorylase; format: biochemical, pig; details: for inhibition at 100 µM: 0.1 mM; for inhibition at 1000 µM: 1.0 mM
# Method: A variety of other inhibitors were tested, including various sulfhydryl reagents and metal chelators.
# Pyrophosphorylase [4] = target: T1, Pyrophosphorylase; test: Specificity of pyrophosphorylase (forward direction); format: biochemical, pig; details: for Activity / Relative Activity: sugar phosphate 5 mM, UT = 5 mM; for Relative Activity: GalNAc-1-P = 100
# Method: (§4) After an incubation of 10 minutes at 37° C., the reaction was terminated by heating the tubes in a boiling water bath for 30 seconds. The amount of product could either be determined by measuring the amount of radioactivity that bound to DE-52 (HCO3 -) after treatment of the reaction mixtures with alkaline phosphatase, or the product could be detected by TLC.
# as §3
# [5] = system: UDP-GlcNAc pyrophosphorylase; details: reverse direction
# Method: as §1, §2
# [6] = system: UDP-GlcNAc pyrophosphorylase; test: Kinetic constants, forward direction (sugar-1-P + UTP); format: biochemical, pig
# Method: as §4
# Pyrophosphorylase [7] = target: T1, Pyrophosphorylase; test: Effects of metal ions on pyrophosphorylase activity; format: biochemical, pig; details: metal ion 1 mM
# Text: Other ions such as Fe^+++, Ca^++ and Hg^++ were ineffective.
# [8] = system: UDP-GlcNAc pyrophosphorylase from brain; details: cited from earlier work
# [9] = system: UDP-GlcNAc pyrophosphorylase; details: [^3 H]UTP + GlcNAc-1-P, 2 hours
# Method: The reaction products, formed in either the forward direction (i.e., uridine diphosphate sugars), or in the reverse direction (i.e., UTP and sugar-i-P's), were isolated by chromatography on a 1×20
# column of DEAE-cellulose (HCO3 -), equilibrated in 10 mM NH4 HCO3. After application of the sample, the column was washed with the same solution and the retained products were eluted with 200 ml of a linear 10 to 300 mM gradient of NH4 HCO3. Fractions were analyzed for nucleotides by measuring the absorption at 260 nm, for radioactivity by scintillation counting, and for hexosamine by the Reissig test (J. Biol. Chem., 217, 959-966, 1955) or the or the Elson Morgan assay (Wheat, R. W. (1966) Meth. Enzymol. 8, 60-78). Peak fractions were pooled and concentrated on a rotary evaporator and NH4 H CO3 was removed by evaporation in the presence of triethylamine. The triethylamine was in turn removed by evaporation in the presence of methanol.
# The reaction products were identified by chromatography, either directly, or following various treatments such as digestion with phosphodiesterase or alkaline phosphatase, or acid hydrolysis. Nucleotides were identified by TLC in the following systems: PEI plates developed in 0.2M and 0.4M solutions of LiCl; cellulose plates in ethanol: 1M ammonium acetate, pH 7.3 (7:3), or silica gel plates in ethanol: 1M ammonium acetate, pH 5.0 (7:3). N-acetyl-hexosamines were released from nucleotides by mild acid hydrolysis (0.01 N HCl, 100° C., 15 minutes) and identified by chromatography on borate-treated paper in n-butanol:pyridine:water (6:4:3) as described earlier by Cardini and Leloir, (1953) Arch. Biochem. Biophys., 45, 317-324.
# After deproteinization, the aqueous phase was applied to a column of DE-52 and sugar phosphates and nucleoside diphosphate sugars were separated with a gradient of NH4 HCO3, as shown in FIG. 4. […] The peak was pooled and subjected to TLC in 3 different solvent systems as described above.
# The characterization of these products was also based on the products produced by phosphosdiesterase, mild acid hydrolysis and other treatments.
# sheep brain enzyme = details: cited from earlier work
# [10] = metal chelators, as long as sufficient Mn++ was added
# [11] = at 1 mM UTP, read-out: apparant Km
# [12] = at 1 mM inorganic pyrophosphate
# T1 sequence (F1S210 1-505): as above
compound,measurement,setting,value
O=C(O)[C@H]1O[C@H](OP(=O)(O)OP(=O)(O)OC[C@H]2O[C@@H](n3ccc(=O)[nH]c3=O)[C@H](O)[C@@H]2O)[C@H](O)[C@@H](O)[C@H]1O [UDP-GalCOOH],Activity,Pyrophosphorylase [1],1.3 nmol/min
same,Relative Activity,Pyrophosphorylase [1],7%
O=c1ccn([C@@H]2O[C@H](COP(=O)(O)OP(=O)(O)O)[C@@H](O)[C@H]2O)c(=O)[nH]1 [UDP],inhibition of labeling,[2]; nucleotides,very little inhibition of labeling
O=P(O)(O)O [inorganic phosphate],inhibition (in words),Pyrophosphorylase [3]; even at 10 mM,nor did inorganic phosphate
Nc1nc2c(ncn2[C@@H]2O[C@H](COP(=O)(O)OP(=O)(O)OP(=O)(O)O)[C@@H](O)[C@H]2O)c(=O)[nH]1 [GTP],inhibition of labeling,[2]; nucleotides,very little inhibition of labeling
Nc1ncnc2c1ncn2[C@@H]1O[C@H](COP(=O)(O)OP(=O)(O)O[C@H]2O[C@H](CO)[C@@H](O)[C@H](O)[C@H]2O)[C@@H](O)[C@H]1O [ADP-Glc],Activity,Pyrophosphorylase [1],0.6 nmol/min
same,Relative Activity,Pyrophosphorylase [1],3%
Nc1nc2c(ncn2[C@@H]2O[C@H](COP(=O)(O)OP(=O)(O)O)[C@@H](O)[C@H]2O)c(=O)[nH]1 [GDP],inhibition of labeling,[2]; nucleotides,very little inhibition of labeling
O=P(O)(O)O[C@H]1O[C@H](CO)[C@H](O)[C@H](O)[C@H]1O [Gal-1-P],"substrate preference, forward direction",Pyrophosphorylase [4],may act as substrates but to a much lower degree
same,Activity,Pyrophosphorylase [4],0.14 nmol/min
same,Relative Activity,Pyrophosphorylase [4],3%
CCN1C(=O)C=CC1=O [N-ethylmaleimide],inhibition at 10 µM,Pyrophosphorylase [3]; 0.01 mM,3%
same,inhibition at 100 µM,Pyrophosphorylase [3],46%
same,inhibition at 1000 µM,Pyrophosphorylase [3],72%
O=P(O)(O)OP(=O)(O)O [inorganic pyrophosphate],Km,[5]; at 1 mM UDP-GlcNAc,70 µM
same,Vmax,[5]; at 1 mM UDP-GlcNAc,20 nmol/min
Nc1nc2c(ncn2[C@@H]2O[C@H](COP(=O)(O)OP(=O)(O)O[C@H]3O[C@H](CO)[C@@H](O)[C@H](O)[C@@H]3O)[C@@H](O)[C@H]2O)c(=O)[nH]1 [GDP-mannose],inhibition of labeling,[2]; even at 1 mM,None of these sugar nucleotides showed any inhibition of the labeling
O=c1ccn([C@@H]2O[C@H](COP(=O)(O)OP(=O)(O)OP(=O)(O)O)[C@@H](O)[C@H]2O)c(=O)[nH]1 [UTP],Vmax,"[6]; UTP as substrate, at 10 mM GlcNAc-1-P",4.8 nmol/min
same,Km,"[6]; UTP as substrate, at 10 mM GlcNAc-1-P, read-out: Km",2500 µM
same,inhibition of labeling,[2]; nucleotides,very little inhibition of labeling
"[Mn+2] [Mn++, manganese]",Activity,Pyrophosphorylase [7],4.89 nmol
same,Activity,Pyrophosphorylase [7]; Mn++ = 100,100%
same,effectiveness as cation,[8],then Mn^++
"c1cnc2c(c1)ccc1cccnc12 [O-Phenanthroline, 1, 10-phenanthroline]",inhibition at 100 µM,Pyrophosphorylase [3]; read-out: Inhibition,5%
same,inhibition at 1000 µM,Pyrophosphorylase [3]; read-out: Inhibition,16%
same,inhibition (in words),Pyrophosphorylase [3]; [10],did not inhibit
Nc1ncnc2c1ncn2[C@@H]1O[C@H](COP(=O)(O)OP(=O)(O)OP(=O)(O)O)[C@@H](O)[C@H]1O [ATP],inhibition of labeling,[2]; nucleotides,very little inhibition of labeling
5-azido-salicylic-[^125 I]-allylamine-UDP-GlcNAc [5-azido-ASA-UDP-GlcNAc],labeling of enzyme subunits by probe,[2],both the 64 kDa and the 55 kDa subunits of the enzyme became labeled with the probe
same,labeling of enzyme subunits by probe,[2]; listed as [^125 I]-N3 -salicyclic acid-allylamine-UDP-GlcNAc,Both subunits became labeled by this probe and labeling was saturable with increasing concentrations of probe
same,labeling of enzyme subunits by probe,[2]; listed as azido-[^125 I]-salicyclic acid-allylamine-UDP-GlcNAc,they both become labeled
same,labeling of GlcNAc transferases by probe,GlcNAc transferases,does label the pyrophosphorylase and some GlcNAc transferases
O=c1ccn([C@@H]2O[C@H](COP(=O)(O)OP(=O)(O)O[C@H]3OC[C@@H](O)[C@H](O)[C@H]3O)[C@@H](O)[C@H]2O)c(=O)[nH]1 [UDP-xylose],inhibition of labeling,[2]; even at 1 mM,None of these sugar nucleotides showed any inhibition of the labeling
"O=P(O)(O)O[C@H]1O[C@H](CO)[C@@H](O)[C@H](O)[C@H]1O [Glc-1-P, glucose-1-P]",Vmax,[6]; at 1 mM UTP,1.7 nmol/min
same,Km,[6]; [11],66600 µM
same,"substrate preference, forward direction",Pyrophosphorylase [4],may act as substrates but to a much lower degree
same,Activity,Pyrophosphorylase [4],0.20 nmol/min
same,Relative Activity,Pyrophosphorylase [4],4%
N[C@H]1[C@@H](OP(=O)(O)O)O[C@H](CO)[C@@H](O)[C@@H]1O [GlcN-1-P],Activity,Pyrophosphorylase [4],0.10 nmol/min
same,Relative Activity,Pyrophosphorylase [4],2%
O=C(O)CN(CCN(CC(=O)O)CC(=O)O)CC(=O)O [EDTA],inhibition at 100 µM,Pyrophosphorylase [3],5%
same,inhibition at 1000 µM,Pyrophosphorylase [3],13%
same,inhibition (in words),Pyrophosphorylase [3]; [10],did not inhibit
N[C@H]1C(OP(=O)(O)O)O[C@H](CO)[C@H](O)[C@@H]1O (stereo partly shown) [GalN-1-P],Activity,Pyrophosphorylase [4],0 nmol/min
CC(=O)N[C@H]1[C@@H](OP(=O)(O)O)O[C@H](CO)[C@@H](O)[C@@H]1O [GlcNAc-1-P],Vmax,[6]; at 1 mM UTP,3.1 nmol/min
same,Km,[6]; [11],2000 µM
same,Activity,Pyrophosphorylase [4],4.83 nmol/min
same,Relative Activity,Pyrophosphorylase [4],91%
"CC(=O)NC1C(OP(=O)(O)OP(=O)(O)OCC2OC(n3ccc(=O)[nH]c3=O)C(O)C2O)OC(CO)C(O)C1O (stereo not shown) [UDP-GlcNAc, UDP-N-acetylglucosamine]",Km,[5]; [12],50 µM
same,Vmax,[5]; [12],22.2 nmol/min
same,Activity,Pyrophosphorylase [1],13.0 nmol/min
same,Relative Activity,Pyrophosphorylase [1],66%
same,inhibition of labeling,[2]; unlabeled UDP-GlcNAc 0.01 mM to 1 mM,labeling was efficiently blocked; also recorded: effectively inhibited the labeling of both subunits to about the same extent; also recorded: labeling is blocked
same,amount in UDP-GlcNAc area,[9],7.9 µmol
same,"radioactivity in UDP-GlcNAc area, share of total",[9],79%
same,activity as substrate (in words),sheep brain enzyme,most active
O[C@H](CS)[C@H](O)CS (racemic) [Dithiothreitol],inhibition at 100 µM,Pyrophosphorylase [3]; read-out: Inhibition,21%
same,inhibition at 1000 µM,Pyrophosphorylase [3]; read-out: Inhibition,62%
O=C(O)CN(CCOCCOCCN(CC(=O)O)CC(=O)O)CC(=O)O [EGTA],inhibition at 100 µM,Pyrophosphorylase [3]; read-out: Inhibition,8%
same,inhibition at 1000 µM,Pyrophosphorylase [3]; read-out: Inhibition,13%
same,inhibition (in words),Pyrophosphorylase [3]; [10],did not inhibit
"O=C(O)[C@H]1O[C@H](OP(=O)(O)OP(=O)(O)OC[C@H]2O[C@@H](n3ccc(=O)[nH]c3=O)[C@H](O)[C@@H]2O)[C@H](O)[C@@H](O)[C@@H]1O [UDP-GlcCOOH, UDP-glucuronic acid]",Activity,Pyrophosphorylase [1],1.4 nmol/min
same,Relative Activity,Pyrophosphorylase [1],7%
same,inhibition of labeling,[2]; even at 1 mM,None of these sugar nucleotides showed any inhibition of the labeling
NC(=O)CI [Iodoacetamide],inhibition at 1000 µM,Pyrophosphorylase [3],44%
CC(=O)N[C@H]1[C@@H](OP(=O)(O)O)O[C@H](CO)[C@H](O)[C@@H]1O [GalNAc-1-P],Vmax,[6]; at 1 mM UTP,7.1 nmol/min
same,Km,[6]; [11],5500 µM
same,"substrate preference, forward direction",Pyrophosphorylase [4],GalNAc-1-P over GlcNAc-1-P; also recorded: prefers GalNAc-1-P slightly over GlcNAc-1-P
same,Activity,Pyrophosphorylase [4],5.28 nmol/min
same,Relative Activity,Pyrophosphorylase [4],100%
O=c1ccn([C@@H]2O[C@H](COP(=O)(O)O)[C@@H](O)[C@H]2O)c(=O)[nH]1 [UMP],inhibition of labeling,[2]; nucleotides,a small effect

# From patent US5753483A (priority 1995, dated 1998)
